Assay results: US7018836B1, “P-TEFb compositions, methods and screening assays” (priority 1996, dated 2006)

Legend:
[1] = test system: transcription in Drosophila extract depleted of P-TEFb; assay: Transcription activity of recombinant protein added into Drosophila extract depleted of P-TEFb (Table 1); assay type: biochemical
[2] = test system: RNA polymerase II; assay: Kinase assay of recombinant P-TEFb subunits with RNA polymerase II as substrate (Table 1); assay type: biochemical, Drosophila
Description: 0.4 μl of purified RNA polymerase II and various protein samples were mixed in 18 μl of 55 mM HMK. The reaction was then initiated by the addition of 2 μl of a solution containing 2 μCi of [γ-^32P]ATP (ICN) and unlabeled ATP at 10 μM, or only unlabeled ATP at concentrations from 1 to 100 μM or other NTPs or dNTPs at concentrations of 1 to 100 μM. Reactions were incubated for the indicated times at 23° C. and then terminated with SDS loading buffer. Samples were analyzed on a 6–15% SDS polyacrylamide gel which was silver stained, dried and subjected to autoradiography if the assay contained label.
Using the CTD Kinase assay, as previously described in Example 2, Section A.7, both HBL1-1 (SEQ ID NO:45), HBL2(SEQ ID NO:47) and HBL3 (SEQ ID NO:50) were substituted for the large subunit in the Drosophila transcription system. Alone “PITARLE” has little kinase activity and no detectable activity in transcription.

[3] = biological target: T1, RNA polymerase II (Drosophila melanogaster, UniProt P04052); assay: Immobilized template add-back assay, elongation by isolated early elongation complexes; assay type: biochemical; settings: added prior to the chase
T1 construct: endogenous in cells; host or cells: Drosophila Kc cell nuclear extract; washed early elongation complexes on immobilized actin A2 template
T1 sequence (P04052 whole entry): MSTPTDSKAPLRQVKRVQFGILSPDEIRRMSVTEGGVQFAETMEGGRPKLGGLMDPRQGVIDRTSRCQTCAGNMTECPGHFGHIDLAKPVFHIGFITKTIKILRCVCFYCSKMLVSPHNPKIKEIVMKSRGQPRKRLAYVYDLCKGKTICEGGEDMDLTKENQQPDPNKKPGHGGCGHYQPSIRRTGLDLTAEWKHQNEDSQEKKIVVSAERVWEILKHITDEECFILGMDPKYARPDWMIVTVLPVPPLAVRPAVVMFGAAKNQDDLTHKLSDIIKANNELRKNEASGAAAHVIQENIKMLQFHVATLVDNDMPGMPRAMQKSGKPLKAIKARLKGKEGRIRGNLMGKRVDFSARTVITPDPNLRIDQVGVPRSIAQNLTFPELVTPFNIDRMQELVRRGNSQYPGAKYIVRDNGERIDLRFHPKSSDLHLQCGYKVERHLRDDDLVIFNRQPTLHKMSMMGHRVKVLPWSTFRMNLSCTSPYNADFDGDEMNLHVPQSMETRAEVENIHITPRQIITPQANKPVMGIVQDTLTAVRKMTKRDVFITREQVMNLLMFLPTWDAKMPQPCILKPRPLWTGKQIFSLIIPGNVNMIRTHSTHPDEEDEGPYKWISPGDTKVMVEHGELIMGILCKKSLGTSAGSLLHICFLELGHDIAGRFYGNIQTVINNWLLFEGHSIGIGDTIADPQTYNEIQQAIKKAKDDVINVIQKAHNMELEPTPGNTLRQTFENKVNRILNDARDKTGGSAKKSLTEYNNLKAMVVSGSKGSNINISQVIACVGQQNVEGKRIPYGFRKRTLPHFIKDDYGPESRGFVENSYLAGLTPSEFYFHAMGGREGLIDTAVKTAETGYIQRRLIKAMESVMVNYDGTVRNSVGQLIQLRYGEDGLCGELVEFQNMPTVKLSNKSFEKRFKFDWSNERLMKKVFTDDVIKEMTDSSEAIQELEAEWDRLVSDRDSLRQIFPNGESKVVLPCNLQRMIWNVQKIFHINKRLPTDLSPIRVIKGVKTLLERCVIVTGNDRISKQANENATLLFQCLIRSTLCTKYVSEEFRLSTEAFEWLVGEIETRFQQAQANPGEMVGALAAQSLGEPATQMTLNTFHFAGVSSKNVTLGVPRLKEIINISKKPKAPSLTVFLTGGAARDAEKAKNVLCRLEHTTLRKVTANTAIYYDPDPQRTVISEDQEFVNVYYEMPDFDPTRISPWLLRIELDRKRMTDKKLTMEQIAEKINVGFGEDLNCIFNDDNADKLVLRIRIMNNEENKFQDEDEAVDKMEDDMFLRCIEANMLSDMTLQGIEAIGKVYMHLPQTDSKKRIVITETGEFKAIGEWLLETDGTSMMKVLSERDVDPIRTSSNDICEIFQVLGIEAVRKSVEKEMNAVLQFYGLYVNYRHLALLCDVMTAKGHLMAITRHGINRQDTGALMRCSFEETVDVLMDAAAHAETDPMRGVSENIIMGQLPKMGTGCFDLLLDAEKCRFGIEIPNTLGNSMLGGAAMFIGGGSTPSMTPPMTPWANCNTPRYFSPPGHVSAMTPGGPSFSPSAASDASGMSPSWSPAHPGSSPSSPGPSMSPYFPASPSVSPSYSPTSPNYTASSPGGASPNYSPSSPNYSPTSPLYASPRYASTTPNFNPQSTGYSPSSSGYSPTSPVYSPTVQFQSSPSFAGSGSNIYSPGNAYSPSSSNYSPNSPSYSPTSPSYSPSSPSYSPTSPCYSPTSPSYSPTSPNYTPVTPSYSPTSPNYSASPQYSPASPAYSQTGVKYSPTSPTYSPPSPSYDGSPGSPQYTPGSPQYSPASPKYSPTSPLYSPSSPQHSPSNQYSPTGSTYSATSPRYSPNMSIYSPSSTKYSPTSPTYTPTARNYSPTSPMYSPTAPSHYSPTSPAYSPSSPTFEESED
Description: Since P-TEF was first identified using an immobilized template assay, the ability of HeLa NE to generate DRB-sensitive elongation complexes when added back to isolated EECs was examined. Drosophila actin A2 DNA template and Kc cell NE was used to form EECs containing Drosophila RNA polymerase II. An immobilized A2 template was preincubated with Kc cell NE and then pulsed for 30 sec with [α-^32P] CTP. The resulting EECs were isolated, and washed. Only short transcripts were produced during the pulse and the labeled […] were removed by the washing protocol. […] However, addition of Kc cell NE to the chase, allowed some EECs to enter productive elongation and make long DRB-sensitive transcripts. When a HeLa NE that was capable of producing high levels of DRB-sensitive transcription was added to the chase, DRB-sensitive transcripts were also produced.

Substance	Transcription activity [1]	Kinase activity ([2]; RNA polymerase II as substrate)	stimulation of the activity of PITALRE by the cyclin subunit ([2]; phosphorylation of the CTD of RNA polymerase II)	elongation by all EECs [3]
PITALRE: human P-TEFb small (kinase) subunit, SEQ ID NO:6, HIS-tagged, baculovirus expressed	none	very little	approximately 100 fold	
α-amanitin				inhibited
